Patent publication US4161520A, “Method of treating hypertension” (priority 1976, dated 1979)

Tests used:
DOCA-Na. rat = assay: Comparative antihypertensive activity of polyether ionophores in the DOCA-Na rat (Example 3, Table III); type: in vivo; conditions: oral, five-day period, daily dose 1/100 of oral LD50 up to 10 mg/kg/day; for AHR (Subacute antihypertensive ratio): bromolasalocid as standard reference; for DURATION OF EFFECT: monitored until return to pre-drug levels
Experimental: Using bromolasalocid as a standard for comparison, a number of polyether ionophores were tested for antihypertensive activity. The tests were conducted utilizing single oral dosages in the DOCA-Na. rat over a five-day period with dosing discontinued thereafter. Blood pressure monitoring was carried out for the five-day period and daily after cessation of dosing until blood pressure returned to pre-drug levels. […] The daily dosage was calculated by using one-one hundredth (1/100) of the oral (per os) toxicity (LD50) up to a maximum of 10 mg/kg/day. The antihypertensive activity expressed as AHR (Subacute antihypertensive ratio) was calculated using bromolasalocid as the standard reference (Table III).

[1] = Oral (per os) toxicity (LD50); type: in vivo

Row | Molecule | ONSET TO MAX. RESPONSE (DOCA-Na. rat) [days] | AHR (Subacute antihypertensive ratio) (DOCA-Na. rat) | DURATION OF EFFECT (DOCA-Na. rat) [days] | LD50 [1] [mg/kg]
1 | COC1CCC(OC2C(C)C(O)(C(C)C(=O)O)OC(CC3CC(OC)C(C)C4(O3)OC(C)(C3CCC(C5CCC(C6OC(C)(O)C(C)C(OC)C6C)O5)O3)C(OC)C4C)C2(C)OC)OC1C (stereo not shown) [A-204] | 4 | 86.6 | 5 | 14
2 | CNc1ccc2oc(C[C@H]3O[C@@]4(CC[C@H]3C)O[C@H]([C@H](C)C(=O)c3ccc[nH]3)[C@H](C)C[C@H]4C)nc2c1C(=O)O [A-23187] | 4 | 0.93 | 10 | > 1000
3 | CO[C@@H]1C[C@@H](C[C@H]2CC[C@H](C)[C@H]([C@@H](C)C(=O)O)O2)O[C@]2(O[C@](C)([C@H]3CC[C@@](C)([C@@H]4O[C@@H]([C@H]5O[C@@](O)(CO)[C@H](C)C[C@@H]5C)C[C@@H]4C)O3)C[C@H]2C)[C@@H]1C [NIGERICIN, Nigericin] | 3 | 4.0 | 9 | 190
4 | CC/C(=C\C=C\[C@@H]1C=C[C@@H]2[C@@H](CC)CC[C@H]2[C@@H]1C(=O)c1ccc[nH]1)[C@@H]1O[C@@H]([C@@H](C)C(=O)O)CC[C@@H]1C [X-14547A] | 2 | 0.58 | 3 | 129
5 | BROMOISOLASALOCID | 2 | 0.85 | 8 | > 1000
6 | Lysocellin | 2 | 2.08 | 3 | 225
7 | Monensin | 2 | 7.2 | 9 | 250
